In patent US20180369230A1, “TARGETED SELECTION OF PATIENTS FOR TREATMENT WITH SPECIFIC CORTISTATIN DERIVATIVES” (President and Fellows of Harvard College, priority 2015, published 2018):

Columns and labels:
MCF-7 = experiment: Soft agar growth assay; assay type: cell-based; details: MCF-7, Breast cancer, ER-alpha positive, 100 nM
Procedure: (§1) For the 62 cell lines 96 well suspension cell culture plates were prepared. 100 μL of the soft agar bottom layer (0.6% final concentration in complete medium) was poured and left to solidify. 50 μL of the soft agar top layer (0.4% final concentration) containing the corresponding cells and cell number were then added on top, solidified and incubated at 37° C., 10% CO2. After the soft agar had solidified, the test items were added at indicated final concentrations into the inner wells of the plate. Subsequently, the assay was incubated in cell culture incubators for 8 to 14 days. Finally, the assay was developed using Alamar Blue and upon 1-5 h of incubation at 37° C. fluorescence intensity was determined (excitation: 560 nm; emission: 590 nm). As low control, cells were treated with 1E-05M Staurosporine (6fold values). As high control, cells were treated with 0.1% DMSO (solvent control, 6 fold values).
(§2) Raw data were converted into percent soft agar growth relative to high controls (solvent 0.1% DMSO) and low controls (1E-05M Staurosporine), which were set to 100% and 0%, respectively. The results are tabulated in FIGS. 15A, 15B, and 15C and Table 4 below.

MKN-45 = experiment: Soft agar growth assay; assay type: cell-based; details: MKN-45, Gastric cancer, MET amplification, 100 nM
Procedure: as §1, §2

U87MG = experiment: Soft agar growth assay; assay type: cell-based; details: Glioma, inactivating mutations in ETV1, FLI1 and SMC3, 100 nM
Procedure: as §1, §2

SET-2 cells = experiment: SET-2 differentiation assay; assay type: cell-based; details: 50 nM, 3 days, flow cytometry
Procedure: For the SET-2 differentiation assay, cells were plated (6-well) in triplicate at 150,000 cells per ml for 3-days with 50 nM CA, 50 ng ml^−1 PMA (positive control), or vehicle. Cell pellets were collected at 4° C., washed three times with cold PBS, and stained with anti-CD61-PE (ab91128) or anti-CD41-PerCP (ab134373) and analyzed by flow cytometry. For each experiment, n=3 biological replicates with two independent experiments and one shown (FIG. 3).

MV4;11-mCLP leukemia = experiment: MV4;11 xenograft model; assay type: in vivo, mice
Procedure: The MV4;11 xenograft model was performed as previously described (Etchin, J. et al. Antileukemic activity of nuclear export inhibitors that spare normal hematopoietic cells. Leukemia 27, 66-74 (2013)). Two-million MV4;11-mCLP cells were injected into the tail vein of 7-week-old female non-obese diabetic-severe combined immuno-deficient (NOD-SCID)Il2rg^−/− (NSG) mice (The Jackson Laboratory) and tumour burden was assessed by bioluminescence imaging (BLI) using an IVIS Spectrum system (Caliper Life Sciences). Seven days after injection, leukaemia establishment was documented by BLI and mice were assigned to groups to achieve a similar mean BLI and treated intraperitoneally with vehicle (20% hydroxypropyl-β-cyclodextrin) or CA once daily for 15 days. After 30 days, blood counts were obtained (Hemavet 950 F, Drew Scientific) and spleen, femur and peripheral blood cells were collected and analysed by flow cytometry (LSR Fortessa, BD Biosciences) from three mice per group, having the highest, lowest and median BLI value. […]
(§3) Samples from all organs were then dissected and placed in nine cassettes per mouse. […] Survival was measured as the time from therapy initiation until moribund state. […]
as §3

MOLM-14 cells = experiment: Screening drug resistant alleles; assay type: cell-based; details: WT and mutated CDK8 and CDK19
Procedure: All suspension cells were plated (96-well) in triplicate at 5,000-30,000 cells per well for testing (n=3). Viable cell number was estimated after 3, 7 and 10 days by counting viable cells from one vehicle well, generating a cell dilution series, transferring […] per well in duplicate to a 384-well plate, and performing a linear regression to CellTiter-Glo (Promega) response (SPECTRAmax M3, Molecular Devices). Cells from all wells were also fourfold diluted in media and transferred in duplicate for CellTiter-Glo measurement. On days 3 and 7, an equal volume for all wells was split-back with fresh media and compound, such that the resulting cell density for the vehicle well matched the initial seeding density. For days 7 and 10, estimated cell number represents the split-adjusted theoretical cell number. HCT116 were plated (96-well) in triplicate at 250 cells per well. Cells were incubated in the presence of vehicle, 1 μM paclitaxel, or compound. On day 7, CellTiter-Blue (Promega) response was measured and values were normalized to vehicle (100% growth) and paclitaxel (0% growth). For growth assays with inhibitors, n=3 for each concentration with two independent experiments. […]

Cortistatin A
% growth rel. to vehicle (MCF-7): 49%
% growth rel. to vehicle (MKN-45): 27%
% growth rel. to vehicle (U87MG): 36%
differentiation, megakaryocytic markers CD41 and CD61 (SET-2 cells): induces differentiation
leukemia cells in the lungs (haematoxylin and eosin staining) (MV4;11-mCLP leukemia; MV4;11 AML mice, Day 30, vs vehicle): fewer leukemia cells in the lungs
spleen weight (MV4;11-mCLP leukemia; NSG mice, disseminated MV4;11-mCLP leukemia, once daily IP for 15 days, 15 days after stopping treatment): prevents spleen weight increase
growth of cells expressing CDK8 W105M or CDK19 W105M (MOLM-14 cells): confers Cortistatin A resistance
